From patent publication US20210128730A1, “METHODS FOR TREATING TUMORS” (NH THERAGUIX, priority 2017, published 2021)
Residues, ends and D or L forms follow the SMILES beside them. *: point of attachment. Cbz = O=C(OCc1ccccc1)*; CH2F = FC*

Key:
Format in all cases: cell-based, human
[1] = tested on: p21; experiment: p21 expression by fluorescence microscopy and immunoblot; conditions: HCT116 treated with XR alone or GdBN+XR
Experimental: (§1) HCT116 cells were seeded in 6-well plates and incubated at 37° C. during 1 hour with indicated concentrations of GdBN. Then, cells were irradiated with X-ray irradiator (1 Gy/min, 200 keV, 15 mA, 2 mm copper thickness, X-RAD 320, Precision X-Ray) or with gamma-ray irradiator (IBL-637, Cs^137, 1 Gy/min, gamma CIS-BioInternational, IBA, Saclay, France). Cells were harvested at indicated time points after irradiation for subsequent experiments. Cellular cannibalism was determined as previously described^13. […] Cells are then co-cultured for the indicated time, in presence of the pharmacological inhibitor of ROCK, Y27632 (30 μM, TOCRIS) or the pan-caspase inhibitor, zVAD-fmk (100 μM, Calbiochem). […] Cells were counterstained with Hoechst 33342 (Invitrogen) and analyzed by fluorescent confocal microscopy on a Zeiss LSM510 or by fluorescent microscopy on a LEICA DMi8 using a 63× objective. […] Cytofluorometric determinations were carried out on Guava EasyCyte (Millipore EMD) and data were analyzed by means with Incyte software (Millipore). Cell cycle distributions were assessed with 10 μg/ml of Hoechst 33342 (Invitrogen), as previously described^14. Cell fluorescence was quantified using LSR II™ flow cytometer (Becton-Dickinson). Fluorescence histograms were analyzed with Kaluza software version 1.5. […]

[2] = tested on: ROCK1; experiment: ROCK1 activation by immunoblot of MLC2 serine 19 phosphorylation (MLC2S19*); conditions: 30 μM Y27632, 24 hours; XR- or GdBN+XR-treated HCT116
Experimental: Total cell lysates were prepared in lysis buffer (0,1% NP40 ; 200 mM HEPES ; 100 mM KCl; 1 mM EDTA; 1% Glycerol final concentration) supplemented with proteases and phosphatases inhibitors cocktail (EDTA-free inhibitors, Roche-diagnostics, Meylan, France). Protein extracts were quantified using the Bradford assay (Bio-Rad Laboratories, Hercules, Calif., USA). Protein extracts (20-40 μg) were run onto 4-12% NuPAGE Bis-tris gel (Invitrogen) and transferred onto nitrocellulose membrane at 4° C.

[3] = tested on: HCT116 cells; experiment: Cellular cannibalism (cell engulfment) in CMTMR/CMFDA co-culture, confocal microscopy
Experimental: as §1

[4] = tested on: HCT116 cells; experiment: Engulfed (target) cell degradation: chromatin condensation and nuclear fragmentation by fluorescence microscopy; conditions: 100 μM Z-VAD-fmk; XR or GdBN+XR
Experimental: Cellular cannibalism was determined as previously described^13. Briefly, treated cells were stained with 10 μM of 5-(and-6)-(((4-Chloromethyl)Benzoyl)Amino)Tetramethylrhodamine (Cell Tracker Orange CMTMR, Invitrogen) and untreated cells were stained with 10 μM of 5-chloromethylfluorescein diacetate (Cell tracker Green CMFDA, Invitrogen). Cells are then co-cultured for the indicated time, in presence of the pharmacological inhibitor of ROCK, Y27632 (30 μM, TOCRIS) or the pan-caspase inhibitor, zVAD-fmk (100 μM, Calbiochem). […] Cells were counterstained with Hoechst 33342 (Invitrogen) and analyzed by fluorescent confocal microscopy on a Zeiss LSM510 or by fluorescent microscopy on a LEICA DMi8 using a 63× objective. […] Cytofluorometric determinations were carried out on Guava EasyCyte (Millipore EMD) and data were analyzed by means with Incyte software (Millipore). Cell cycle distributions were assessed with 10 μg/ml of Hoechst 33342 (Invitrogen), as previously described^14. Cell fluorescence was quantified using LSR II™ flow cytometer (Becton-Dickinson). Fluorescence histograms were analyzed with Kaluza software version 1.5. […]

CC(=O)N[C@@H](CS)C(=O)O [NAC, N-acetylcysteine]
effect on cellular senescence (p21 expression, immunoblot) ([1]; 100 μM NAC): reduced the cellular senescence

C[C@@H](N)[C@H]1CC[C@H](C(=O)Nc2ccncc2)CC1 [Y27632]
inhibition of ROCK1 (MLC2S19* immunoblot) [2]: inhibition of ROCK1 | effect on cellular cannibalism ([3]; 30 μM Y27632, after 6 Gy alone and after 6 Gy with 1.2 mM GdBN, 24 hours co-culture): inhibited the cellular cannibalism

COC(=O)C[C@H](NC(=O)[C@H](C)NC(=O)[C@@H](NC(=O)OCc1ccccc1)C(C)C)C(=O)CF [Z-VAD-fmk, benzyloxycarboxyl-Val-Ala-Asp (OMe) fluoromethylketone] (Cbz-Val-Ala-Asp(OMe)-CH2F)
effect on target cell degradation [4]: failed to repress target cell degradation | effect on cellular engulfment ([3]; 100 μM Z-VAD-fmk, after XR or GdBN+XR, 24 h culture): not inhibited

O=C(O)c1ccc(-c2c3nc(c(-c4ccc(C(=O)O)cc4)c4ccc([n-]4)c(-c4ccc(C(=O)O)cc4)c4nc(c(-c5ccc(C(=O)O)cc5)c5ccc2[n-]5)C=C4)C=C3)cc1.[Mn+3] [MnTBAP, Manganese (III)-tetrakis(4-benzoic acid) porphyrin]
effect on cellular senescence (p21 expression, immunoblot) ([1]; 10 μM MnTBAP): reduced the cellular senescence
